Experimental findings from ChEMBL document CHEMBL5465560, “Selectivity Literature for EUbOPEN Chemogenomic Library” (2024) are described below.

The test system of assay [1] is Tyrosine-protein kinase ABL1 (Homo sapiens), P00519 [F317L]. The assay is described as follows: Selectivity interaction (KinomeScan (DiscoverX)) EUB0001079a ABL1. Particulars: at 1 µM.
Assay [2] has as its target Serine/threonine-protein kinase 38-like (Homo sapiens) (UniProt Q9Y2H1). The assay is described as follows: Selectivity interaction (ActivX KiNativ screen (kinase selectivity in THP-1 cell lysates)) EUB0000639a STK38L. Format: subcellular. The conditions noted are these: lysate, at 5 µM.
Assay [3] has as its target T1, Serine/threonine-protein kinase Nek9 (Homo sapiens) (UniProt Q8TD19).
T1 sequence (whole entry): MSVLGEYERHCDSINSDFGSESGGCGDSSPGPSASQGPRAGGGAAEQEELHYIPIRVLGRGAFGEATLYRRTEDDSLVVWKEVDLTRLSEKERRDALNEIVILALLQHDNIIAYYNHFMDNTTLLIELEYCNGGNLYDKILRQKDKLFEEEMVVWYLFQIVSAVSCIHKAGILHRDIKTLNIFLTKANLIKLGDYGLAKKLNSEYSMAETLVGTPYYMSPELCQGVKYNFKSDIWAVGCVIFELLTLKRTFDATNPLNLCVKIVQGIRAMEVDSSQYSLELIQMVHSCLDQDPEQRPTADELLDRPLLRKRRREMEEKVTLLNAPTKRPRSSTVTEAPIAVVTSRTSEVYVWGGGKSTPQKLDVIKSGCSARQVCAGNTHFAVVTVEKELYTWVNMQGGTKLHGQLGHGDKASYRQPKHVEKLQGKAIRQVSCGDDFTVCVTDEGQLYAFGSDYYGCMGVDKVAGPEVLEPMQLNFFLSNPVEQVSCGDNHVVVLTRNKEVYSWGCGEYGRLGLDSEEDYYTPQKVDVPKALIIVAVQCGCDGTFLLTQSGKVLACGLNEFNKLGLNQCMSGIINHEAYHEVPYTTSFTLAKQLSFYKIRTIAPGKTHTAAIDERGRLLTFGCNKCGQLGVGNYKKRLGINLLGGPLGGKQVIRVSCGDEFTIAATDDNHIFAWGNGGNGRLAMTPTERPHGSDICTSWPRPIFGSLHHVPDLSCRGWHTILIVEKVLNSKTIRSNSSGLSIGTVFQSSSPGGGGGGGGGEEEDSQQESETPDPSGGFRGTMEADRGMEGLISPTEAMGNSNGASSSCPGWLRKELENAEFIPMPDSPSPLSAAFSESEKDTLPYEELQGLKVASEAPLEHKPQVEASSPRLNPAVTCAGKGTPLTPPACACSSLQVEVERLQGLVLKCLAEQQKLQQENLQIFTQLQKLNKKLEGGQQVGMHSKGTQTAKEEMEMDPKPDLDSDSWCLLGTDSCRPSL
The assay is described as follows: Selectivity interaction (Kinase panel (Invitrogen)) EUB0000639a NEK9. The conditions noted are these: at 200 nM.

In assay [4] the target is Receptor-type tyrosine-protein kinase FLT3 (Homo sapiens) (UniProt P36888). The assay is described as follows: (§1) Selectivity interaction (KinomeScan (DiscoverX)) EUB0001619a FLT3. Particulars: at 1 µM.
In assay [5] the test system is T2, Receptor-type tyrosine-protein kinase FLT3 (Homo sapiens), P36888 [R834Q].
T2 sequence (whole entry): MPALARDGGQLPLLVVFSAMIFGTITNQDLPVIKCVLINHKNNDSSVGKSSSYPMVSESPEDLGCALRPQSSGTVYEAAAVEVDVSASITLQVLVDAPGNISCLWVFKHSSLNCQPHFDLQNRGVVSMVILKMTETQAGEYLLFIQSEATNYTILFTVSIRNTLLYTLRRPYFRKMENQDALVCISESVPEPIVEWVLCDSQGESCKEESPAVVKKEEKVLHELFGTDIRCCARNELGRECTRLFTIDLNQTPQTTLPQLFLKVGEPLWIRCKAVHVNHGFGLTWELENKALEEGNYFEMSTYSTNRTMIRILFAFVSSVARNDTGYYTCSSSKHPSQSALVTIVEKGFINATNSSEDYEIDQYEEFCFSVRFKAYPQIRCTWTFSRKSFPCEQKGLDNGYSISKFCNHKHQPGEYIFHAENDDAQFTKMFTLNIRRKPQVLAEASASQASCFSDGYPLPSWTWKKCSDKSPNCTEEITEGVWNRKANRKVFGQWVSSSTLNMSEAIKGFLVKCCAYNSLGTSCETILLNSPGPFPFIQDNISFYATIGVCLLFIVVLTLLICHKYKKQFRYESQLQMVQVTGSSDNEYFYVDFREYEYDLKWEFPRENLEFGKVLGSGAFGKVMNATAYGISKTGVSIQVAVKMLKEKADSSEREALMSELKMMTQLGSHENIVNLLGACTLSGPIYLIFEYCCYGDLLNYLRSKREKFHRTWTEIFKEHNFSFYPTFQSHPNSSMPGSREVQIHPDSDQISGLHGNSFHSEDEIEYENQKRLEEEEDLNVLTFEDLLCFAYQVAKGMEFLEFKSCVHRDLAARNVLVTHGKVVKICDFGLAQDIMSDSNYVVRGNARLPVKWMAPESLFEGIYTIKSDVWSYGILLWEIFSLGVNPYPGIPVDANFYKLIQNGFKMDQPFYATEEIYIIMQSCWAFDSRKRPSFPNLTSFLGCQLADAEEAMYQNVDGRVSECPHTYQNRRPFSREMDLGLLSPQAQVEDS
The description is as §1. Particulars: at 1 µM.

The target of assay [6] is Tyrosine-protein kinase CSK (Homo sapiens) (UniProt P41240). The assay is described as follows: Selectivity interaction (Kinase panel (KiNativ target engagement assay in Jurkat cells)) EUB0001635a CSK. It is filed as cell-based. Particulars: at 1 µM.
Sequence of Tyrosine-protein kinase CSK (Homo sapiens) (P41240 2-450 limits assumed): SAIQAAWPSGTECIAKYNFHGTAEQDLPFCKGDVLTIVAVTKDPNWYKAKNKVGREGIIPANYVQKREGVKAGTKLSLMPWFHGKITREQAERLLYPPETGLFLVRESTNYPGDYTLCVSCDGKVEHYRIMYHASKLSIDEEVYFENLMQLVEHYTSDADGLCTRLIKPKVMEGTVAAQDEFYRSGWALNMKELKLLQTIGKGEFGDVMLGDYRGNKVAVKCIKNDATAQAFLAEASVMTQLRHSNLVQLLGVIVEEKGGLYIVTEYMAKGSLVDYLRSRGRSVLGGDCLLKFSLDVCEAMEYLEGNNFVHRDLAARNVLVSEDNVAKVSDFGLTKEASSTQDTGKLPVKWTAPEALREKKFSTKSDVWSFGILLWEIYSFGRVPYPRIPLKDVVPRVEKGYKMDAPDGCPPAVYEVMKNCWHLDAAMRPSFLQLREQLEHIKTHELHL

Sequence of Serine/threonine-protein kinase 38-like (Homo sapiens) (Q9Y2H1 2-464 limits assumed): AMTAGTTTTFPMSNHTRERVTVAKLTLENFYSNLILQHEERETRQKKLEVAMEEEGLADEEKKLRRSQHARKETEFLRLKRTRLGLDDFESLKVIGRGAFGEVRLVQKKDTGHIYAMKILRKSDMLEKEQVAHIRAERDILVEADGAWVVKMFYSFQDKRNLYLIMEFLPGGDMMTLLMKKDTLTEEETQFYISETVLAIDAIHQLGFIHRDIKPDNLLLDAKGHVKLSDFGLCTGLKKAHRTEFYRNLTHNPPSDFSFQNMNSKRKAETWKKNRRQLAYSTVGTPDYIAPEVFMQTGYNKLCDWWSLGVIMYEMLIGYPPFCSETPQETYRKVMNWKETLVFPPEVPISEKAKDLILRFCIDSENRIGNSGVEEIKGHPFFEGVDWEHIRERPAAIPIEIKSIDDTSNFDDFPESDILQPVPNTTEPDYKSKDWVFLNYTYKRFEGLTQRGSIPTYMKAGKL
Sequence of Tyrosine-protein kinase ABL1 (Homo sapiens), P00519 [F317L] (P00519 whole entry F317L): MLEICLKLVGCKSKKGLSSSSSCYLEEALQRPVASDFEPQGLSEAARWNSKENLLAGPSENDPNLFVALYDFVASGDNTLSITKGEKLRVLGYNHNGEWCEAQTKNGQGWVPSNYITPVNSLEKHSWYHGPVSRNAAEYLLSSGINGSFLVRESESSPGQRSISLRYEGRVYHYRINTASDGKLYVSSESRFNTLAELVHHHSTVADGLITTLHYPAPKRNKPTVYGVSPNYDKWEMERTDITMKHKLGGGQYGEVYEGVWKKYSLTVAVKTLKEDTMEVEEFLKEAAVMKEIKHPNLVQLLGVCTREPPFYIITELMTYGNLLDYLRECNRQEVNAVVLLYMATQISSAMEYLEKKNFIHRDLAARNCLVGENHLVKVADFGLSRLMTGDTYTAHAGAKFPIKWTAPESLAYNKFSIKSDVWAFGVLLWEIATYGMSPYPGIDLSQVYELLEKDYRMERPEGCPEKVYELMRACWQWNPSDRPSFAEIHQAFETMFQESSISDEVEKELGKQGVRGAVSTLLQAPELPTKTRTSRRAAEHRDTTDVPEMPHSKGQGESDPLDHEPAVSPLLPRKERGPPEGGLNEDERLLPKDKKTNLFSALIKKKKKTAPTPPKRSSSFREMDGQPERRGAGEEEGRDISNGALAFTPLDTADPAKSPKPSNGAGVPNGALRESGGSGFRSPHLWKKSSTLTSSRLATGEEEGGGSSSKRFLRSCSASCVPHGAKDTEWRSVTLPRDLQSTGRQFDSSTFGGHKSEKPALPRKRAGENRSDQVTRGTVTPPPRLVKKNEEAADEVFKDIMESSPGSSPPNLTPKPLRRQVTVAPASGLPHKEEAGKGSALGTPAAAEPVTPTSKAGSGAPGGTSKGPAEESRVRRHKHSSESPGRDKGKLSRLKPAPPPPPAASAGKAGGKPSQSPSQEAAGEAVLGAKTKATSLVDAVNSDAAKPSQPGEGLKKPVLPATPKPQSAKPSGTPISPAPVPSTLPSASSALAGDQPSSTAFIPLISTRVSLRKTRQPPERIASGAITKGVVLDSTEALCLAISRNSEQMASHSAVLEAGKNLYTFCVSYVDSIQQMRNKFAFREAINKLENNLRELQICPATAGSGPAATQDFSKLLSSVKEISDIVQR

`Nc1cnc(N2CCc3cc(S(=O)(=O)Nc4c(F)cc(Cl)cc4F)cc(N4CCCC4=O)c32)nc1` [TP-020n] displayed a % of control in assay [1] of 78%.

`CC[C@@H]1[C@H](F)C(=O)N[C@@H]1COc1nccc2cc(C(N)=O)c(OC)cc12` [ZIMLOVISERTIB]: the % of inhibition in assay [2] was determined as 77.4%; in assay [3] it was 2.82%.

Take `N#Cc1cccc(-c2c[nH]c3ncnc(N4CCOCC4)c23)c1`: the % of control in assay [4] came out at 89%; in assay [5], 93%.

Regarding `C=CC(=O)Nc1ccc(C(=O)Nc2[nH]nc3c2CN(C(=O)N[C@H](CN(C)C)c2ccccc2)C3(C)C)cc1`, the % of engagement in assay [6] (Selectivity number of off-targets 0.0, Selectivity number of targets 233.0, Source Knowledge https://www.sciencedirect.com/science/article/pii/S2451945619300674?via%3Dihub) was -7.9%; in assay [6] it was -8.1%.
